Test results as given in patent US20240140943A1, “COMPETITIVE AND NONCOMPETITIVE INHIBITORS OF THE MUSCARINIC ACETYLCHOLINE RECEPTOR M5” (Vanderbilt University, priority 2021, published 2024).

Target: T1, human M5 receptors (hM5) (Homo sapiens, UniProt P08912)
T1 construct: expressed in transfected cells
T1 sequence (P08912 1-532): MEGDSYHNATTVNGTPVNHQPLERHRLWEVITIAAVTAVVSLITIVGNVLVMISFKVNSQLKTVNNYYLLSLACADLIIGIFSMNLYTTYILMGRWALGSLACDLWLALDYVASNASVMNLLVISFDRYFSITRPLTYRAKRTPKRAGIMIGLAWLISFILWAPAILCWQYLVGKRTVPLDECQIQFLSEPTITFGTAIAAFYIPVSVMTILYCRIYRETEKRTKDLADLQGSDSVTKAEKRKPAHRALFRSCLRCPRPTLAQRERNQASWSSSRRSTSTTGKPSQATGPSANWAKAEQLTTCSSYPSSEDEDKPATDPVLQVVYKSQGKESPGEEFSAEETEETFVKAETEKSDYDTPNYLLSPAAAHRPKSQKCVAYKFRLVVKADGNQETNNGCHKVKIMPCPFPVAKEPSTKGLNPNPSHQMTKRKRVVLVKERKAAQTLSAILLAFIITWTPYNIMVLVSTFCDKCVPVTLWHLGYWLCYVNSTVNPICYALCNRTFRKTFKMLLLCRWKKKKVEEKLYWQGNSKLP
Experiment: Cell-based functional calcium mobilization assay of mAChR M5 activity
Details: CHO cells stably expressing hM5; for IC50: calcium mobilization, inhibition of EC80 acetylcholine response; for EC80 MIN: minimum response at EC80 acetylcholine addition, normalized to maximum acetylcholine response
Protocol: All functional cell-based assays were performed essentially as previously described (Mario et al., Mol. Pharm. 2009, 75(3), 577-588; Brady et al., J. Pharm. & Exp. Ther. 2008, 327, 941-953). Initial, single point (10 μM) compound characterization was performed in stable Chinese Hamster Ovary (CHO) cell lines constitutively expressing human M5 receptors. These were plated at 15,000 cells per 20 μL per well in Greiner 384-well black-walled, TC-treated, clear-bottomed plates (Fisher) in Ham's F12 medium supplemented with 10% FBS and 20 mM HEPES. Cells were incubated overnight at 37° C. under 5% CO2. The following day, medium was exchanged with assay buffer (Hank's Balanced Salt Solution supplemented with 20 mM HEPES and 2.5 mM Probenecid, pH 7.4) leaving 20 μL of assay buffer in each well. This was followed by the addition of 20 μL of 2.3 μM of Fluo-4 AM (Invitrogen) in assay buffer (final concentration 1.15 μM). The cells were then incubated 50 minutes at 37° C. under 5% CO2. The assay buffer plus dye was then exchanged with fresh assay buffer leaving a volume of 20 μL in each well. Test compounds were diluted into assay buffer to a 2× (20 μM) concentration in 0.2% dimethylsulfoxide (DMSO) in columns 3-22 with matching DMSO concentration in columns 1, 2, 23, and […]; compounds were added to the assay for a final concentration of 10 μM and a final DMSO concentration of 0.1%. Acetylcholine (Sigma-Aldrich) was prepared to provide 5× concentrations of EC20, EC80, and ECmax in the triple-addition assay, providing a signal window to view agonism, potentiation, and inhibition of the acetylcholine response as well as a means to normalize to the maximum acetylcholine response.
Either an FDSS (Hamamatsu) or Panoptic (WaveFront Biosciences) kinetic imaging plate reader was used for assay execution and measurement of calcium flux. After establishing baseline fluorescence, test compounds (20 μL) were added to the cells using the reader's integrated pipettor and allowed to equilibrate for 140 seconds before addition of the EC20 concentration of acetylcholine (10 μL) along with vehicle in selected DMSO-only wells in the outer two columns. The EC80 concentration of acetylcholine (10 μL) was added 125 seconds after the EC20 addition along with ECmax concentration in the wells receiving vehicle in the second addition. The raw fluorescence data from each well was normalized to the corresponding initial fluorescence reading (static ratio). The maximum fluorescence value following each addition was determined and the minimum value within that same timeframe was subtracted for each well then normalized to the average of the ECmax maximum-minimum response, providing a % AChmax value for each addition for each well. The single point values represent mean values determined within the EC80 addition timeframe obtained from at least three independent determinations performed in triplicate or greater (error bars represent +/−SEM) unless otherwise specified.
Further characterization of test compounds (compound potency and mAChR subtype-selectivity) was performed on the FDSS with calcium mobilization assays performed as previously described (Mario et al., 2009; Brady et al., 2008) and in a format similar to that described above using the same reagents. CHO cells stably expressing hM1, hM2/Gqi5, hM3, hM4/Gqi5, hM5, rM1, rM2/Gqi5, rM3, rM4/Gqi5, or rM5 were plated in the manner described above. A ten-point concentration range of test compound was serial diluted in assay buffer to 2× final concentration and acetylcholine was diluted in assay buffer to 5× of the EC20 and EC80 concentrations, determined empirically and 5× maximal (2 mM final concentration) stock concentrations. FDSS protocols were carried out as described above; the static ratio was calculated and the minimum response subtracted from the maximum response within the timeframe of each addition. This max-min response was then normalized to the maximum acetylcholine response. […]

IC50	EC80 MIN	SMILES
0.185 µM	3%	Cc1nnc(S(=O)(=O)[C@H]2CC[C@H](c3cn4ncnc4cc3Cl)CC2)s1 [Compound 1, trans-2-((4-(7-chloro-[1,2,4]triazolo[1,5-a]pyridin-6-yl)cyclohexyl)sulfonyl)-5-methyl-1,3,4-thiadiazole]
0.532 µM	3%	Cc1nnc(S(=O)(=O)[C@H]2CC[C@H](c3cn4ncnc4cc3Cl)CC2)o1 [Compound 2, trans-2-((4-(7-chloro-[1,2,4]triazolo[1,5-a]pyridin-6-yl)cyclohexyl)sulfonyl)-5-methyl-1,3,4-oxadiazole]
0.033 µM	2%	Cc1nnc(S(=O)(=O)[C@H]2CC[C@H](c3cn4ncnc4cc3Cl)CC2)n1C [Compound 3, trans-7-chloro-6-(4-((4,5-dimethyl-4H-1,2,4-triazol-3-yl)sulfonyl)cyclohexyl)-[1,2,4]triazolo[1,5-a]pyridine]
> 10 µM	55%	Cc1nnc(S(=O)(=O)[C@H]2CC[C@@H](c3cn4ncnc4cc3C)CC2)o1 [Compound 4, cis-2-methyl-5-((4-(7-methyl-[1,2,4]triazolo[1,5-a]pyridin-6-yl)cyclohexyl)sulfonyl)-1,3,4-oxadiazole]
